For this test, the system named is lactate dehydrogenase A (LDHA); measured as cellular LDH activity. The test can be described thus: LDH activity. It counts as cell-based.

Experimental findings from publication PMC6774872 (Cancer research, 2019) are described below.

pIC50: −log10 of the molar value.

The term pIC50 denotes −log10 of the IC50, conventionally taken in molar units. Low readings indicate a high IC50, high ones a low IC50. NCI-737: the pIC50 is approximately 7.00.
